Structures are written as SMILES.

In the assay the target is T1, trypanothione reductase (TR; LiTR) (Leishmania infantum, UniProt A4HSF7).
T1 construct: gene TRYR; Full-length LiTR with carboxy-terminal six-histidine tag (LiTR.6His), expressed in E. coli
Kind of assay: DTNB-coupled trypanothione reductase assay with purified recombinant enzyme; Lineweaver-Burk and Dixon plot analysis (IC50 […] also reported). Type of assay: biochemical.

T1 sequence (A4HSF7 1-491): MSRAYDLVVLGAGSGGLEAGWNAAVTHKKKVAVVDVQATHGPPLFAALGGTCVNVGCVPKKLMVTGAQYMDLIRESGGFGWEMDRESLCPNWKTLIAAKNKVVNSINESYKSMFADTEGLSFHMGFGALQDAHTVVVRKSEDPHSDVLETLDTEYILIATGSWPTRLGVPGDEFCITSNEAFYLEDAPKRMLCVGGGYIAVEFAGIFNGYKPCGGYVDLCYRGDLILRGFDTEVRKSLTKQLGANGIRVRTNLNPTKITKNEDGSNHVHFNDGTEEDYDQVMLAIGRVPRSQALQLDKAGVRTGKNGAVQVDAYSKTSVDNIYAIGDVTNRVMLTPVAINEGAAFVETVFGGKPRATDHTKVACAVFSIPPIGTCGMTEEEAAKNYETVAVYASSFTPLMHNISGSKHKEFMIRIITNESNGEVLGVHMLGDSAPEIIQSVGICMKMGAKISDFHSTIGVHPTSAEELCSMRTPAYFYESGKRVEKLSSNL

In general, Ki refers to the dissociation constant of the complex between target and ligand, obtained from inhibition or displacement. Consider `O=C(O[C@@H]1Cc2c(O)cc(O)cc2O[C@@H]1c1cc(O)c(O)c(O)c1)c1cc(O)c(O)c(O)c1` [(-)-Epigallocatechin 3-O-gallate], for which the Ki came to 294 ± 66.3 µM.

The values are drawn from PMC8027256, “Epigallocathechin-O-3-Gallate Inhibits Trypanothione Reductase of Leishmania infantum, Causing Alterations in Redox Balance and Leading to Parasite Death” (Frontiers in Cellular and Infection Microbiology, 2021).
